In patent US20130085133A1, “ANTI-VIRAL TREATMENT AND ASSAY TO SCREENFOR ANTI-VIRAL AGENT” (Sourthern Research Institute Office of Commercialization …, priority 2010, published 2013):
Where two headings read alike, the source gives them in different places. Blank lines part the entries; values can stand above or below the compound they belong to.

Experiments:
in vitro = settings: human
Experimental: (§1) Test compounds were evaluated by measuring their antiviral activity, cell toxicity, and selectivity. Test compounds were serially diluted in a plate to plate matrix or “stacked plate” matrix. All 320 compounds in a source plate were diluted together resulting in a 10 point dose response dilution series. It was visualized as a serial dilution series proceeding vertically through a stack of plates with the high dose plate on top and the low dose plate on the bottom.
(§2) Following the six day incubation period, the assay plates were equilibrated to room temperature for 30 min and an equal volume (30 μL) of Cell Titer-Glo reagent (Promega Inc.) was added to each well using a WellMate (Matrix, Hudson, N.H.) and plates were incubated for an additional 10 min at room temperature. At the end of the incubation, luminescence was measured using a Perkin Elmer Envision™ multi-label reader (PerkinElmer, Wellesley, Mass.) with an integration time of 0.1 s.
(§3) Data was analyzed using ActivityBase software (IDBS, Inc, Guilford, UK). thirty two control wells containing cells only and twenty four wells containing cells and virus were included on each assay plate and used to calculate Z′ value for each plate and to normalize the data on a per plate basis. […] Eight ribavirin positive control wells were included on each plate for quality control purposes, but were not used in Z′ calculations. […] In the toxicity assay, results are described as percent viability and the calculation is the same.
(§4) An EC50 (for CPE inhibition) and IC50 (for cell viability) were calculated for each substance using the 4 parameter Levenburg-Marquardt algorithm with parameter A locked at 0 and parameter B locked at 100. Standard deviation, normalized chi2 and hill slope were used to evaluate the curves. Values were not extrapolated beyond the tested range of concentrations.

[1] = test system: respiratory syncytial virus (RSV) strain Long; assay: microbe, parasite or virus in culture; settings: human respiratory syncytial virus, HEp-2, 144 h
RSV, Long strain = assay: virus titer Reduction (VTR) assay, progeny virus TCID50 in HEp-2 cells; assay type: cell-based, respiratory syncytial virus (RSV); settings: log reduction in progeny virus titer; for TCID-50 Reduction @ 3 ug/ml: 3 ug/ml compound; for TCID-50 Reduction 6 @ ug/ml: 6 ug/ml compound; for TCID-50 Reduction 12 @ ug/ml: 12 ug/ml compound; for TCID-50 Reduction 25 @ ug/ml: 25 ug/ml compound
Experimental: Four concentrations of each compound were evaluated (Table 3). Briefly, the four concentrations of test compounds, HEp-2 cells (8×10^3 per well) and RSV, Long strain (MOI=0.9) were plated in 96 well microtiter plates. The plates were incubated for 48 hours. Fifteen (15) μl of 10-fold serial dilution of progeny virus containing medium from respective samples (test compound treated or untreated) was transferred to infect fresh HEp-2 cells (2×10^3 cells per well) in a 384 well format. Plates were incubated for an additional 6 days and luminescence was measured using Cell Titer-Glo reagent (Promega Inc.) to determine cell viability. […] A well showing lesser than 50% cell viability was regarded as positive for virus infection. Four replicates for each virus dilution were analyzed and the number of virus positive wells (out of 4) was plotted versus the dilution. TCID50 was calculated to be the dilution that produced two positive wells out of four using ActivityBase software (IDBS, Inc, Guilford, UK).

[2] = test system: respiratory syncytial virus (RSV) strain Long; settings: EC50 for CPE inhibition, HEp-2 cells, six days, tested range 25 ug/mL to 0.048 ug/mL (Chembridge), 50 uM to 0.097 uM (Enamine, SRI Proprietary)
HEp-2 cells = assay: cytotoxicity assay (percent viability of HEp-2 cells, Cell Titer-Glo); settings: cell viability of HEp-2 cells (text: IC50), top concentration 25 ug/mL (Chembridge), 50 uM (Enamine, SRI Proprietary)
Experimental: as §1, §2, §3, §4

Compound: O=S(=O)(c1cc(Cl)c(O)c(Cl)c1)c1cc(Cl)c(O)c(Cl)c1 [AB00275543]
- CC50 at 6 days (in vitro): > 25 µg/mL
- EC50 [1]: 16.2 µg/mL

Compound: Cc1ccc2[nH]c3c(c2c1)CN(C)CC3 [AB00275559]
- TCID-50 Reduction @ 3 ug/ml (RSV, Long strain): 1.00
- TCID-50 Reduction 6 @ ug/ml (RSV, Long strain): 1.93
- TCID-50 Reduction 12 @ ug/ml (RSV, Long strain): 2.21
- TCID-50 Reduction 25 @ ug/ml (RSV, Long strain): 1.93
- EC50 ([2]; unit not given): 6.29
- CC50 (HEp-2 cells; unit not given): >25.00

Compound: COc1c2ccoc2nc2c(OC)cccc12 [AB00276394]
- CC50 (in vitro): > 25 µg/mL
- EC50 [1]: 15.2 µg/mL

Compound: CCN(CC)C(=O)C1CCCc2c1[nH]c1ccc(Cl)cc21 (stereo not drawn) [AB00279132]
- TCID-50 Reduction @ 3 ug/ml (RSV, Long strain): 1.00
- TCID-50 Reduction 6 @ ug/ml (RSV, Long strain): 3.63
- TCID-50 Reduction 12 @ ug/ml (RSV, Long strain): 4.22
- TCID-50 Reduction 25 @ ug/ml (RSV, Long strain): 3.83
- EC50 ([2]; unit not given): 1.92
- CC50 (HEp-2 cells; unit not given): >25.00

- EC50 ([2]; unit not given): 17.84
Compound: CCC(Sc1nnc2c3ccccc3n(CCc3ccccc3)c2n1)C(=O)Nc1ccc(S(N)(=O)=O)cc1 (stereo not drawn) [AB00287440]
- CC50 (HEp-2 cells; unit not given): >25.00

Compound: N#CCCCSc1nnnn1-c1cccc(Cl)c1 [AB00287736]
- EC50 ([2]; unit not given): 16.16
- CC50 (HEp-2 cells; unit not given): >25.00

Compound: Cc1[nH]c2ccccc2c1-c1csc(-c2ccncc2)n1 [AB00291074]
- EC50 ([2]; unit not given): 20.59
- CC50 (HEp-2 cells; unit not given): >25.00

Compound: COc1cc(OC)c(OC)cc1C=Nn1c(S)nnc1-c1ccc(C(C)(C)C)cc1 [AB00291789]
- EC50 ([2]; unit not given): 10.96
- CC50 (HEp-2 cells; unit not given): >25.00

Compound: COc1ccc(-c2cn3cccnc3n2)cc1F [AB00292655]
- EC50 ([2]; unit not given): 10.88
- CC50 (HEp-2 cells; unit not given): >25.00

Compound: N#CCCN1CCN(C(=S)c2ccc(-c3cccc(Cl)c3)o2)CC1 [AB00294368]
- CC50 (in vitro): > 25 µg/mL
- EC50 [1]: 15 µg/mL

Compound: C=CCn1c(SCc2ccc(OC)c([N+](=O)[O-])c2)nnc1-c1cccc(Br)c1 [AB00294809]
- EC50 ([2]; unit not given): 20.29
- CC50 (HEp-2 cells; unit not given): >25.00

Compound: Fc1ccc(-c2cc(C(F)(F)F)n[nH]2)cc1 [AB00294826]
- EC50 ([2]; unit not given): 16.73
- CC50 (HEp-2 cells; unit not given): >25.00

Compound: CC(=O)Nc1ccc(Nc2ncnc3sc4c(c23)CCCC4)cc1 [AB00296051]
- EC50 ([2]; unit not given): 16.70
- CC50 (HEp-2 cells; unit not given): >25.00

Compound: Cc1cccc(-n2c(Cc3cccc([N+](=O)[O-])c3)nc3ccccc3c2=O)c1 [AB00297463]
- CC50 at 6 days (in vitro): > 25 µg/mL
- EC50 [1]: 16.3 µg/mL

Compound: O=Cc1cn(CC(=O)N2CCc3ccccc3C2)c2ccc(Br)cc12 [AB00302396]
- CC50 (in vitro): > 25 µg/mL
- EC50 [1]: 23.8 µg/mL

Compound: S=C(c1c[nH]c2ccc(Br)cc12)N1CCOCC1 [AB00303357]
- EC50 ([2]; unit not given): 21.92
- CC50 (HEp-2 cells; unit not given): >25.00

Compound: O=C(Nc1ccc2[nH]c(-c3ccccc3)nc2c1)c1ccccc1 [AB00308659]
- TCID-50 Reduction @ 3 ug/ml (RSV, Long strain): 2.82
- TCID-50 Reduction 6 @ ug/ml (RSV, Long strain): 3.64
- TCID-50 Reduction 12 @ ug/ml (RSV, Long strain): 6.43
- TCID-50 Reduction 25 @ ug/ml (RSV, Long strain): 6.40
- EC50 ([2]; unit not given): 8.66
- CC50 (HEp-2 cells; unit not given): >25.00

Compound: O=C(O)CCNc1nc(Cc2ccccc2)nc2sc3c(c12)CCCC3 [AB00308859]
- EC50 ([2]; unit not given): 20.48
- CC50 (HEp-2 cells; unit not given): >25.00

Compound: COc1cc(N2CCCC2)c(OC)cc1C=C(C#N)c1nc2ccccc2[nH]1 [AB00321587]
- EC50 ([2]; unit not given): 9.15
- CC50 (HEp-2 cells; unit not given): >25.00

Compound: Cc1cc(C=C(C#N)c2nc3ccccc3[nH]2)c(C)n1-c1ccccn1 [AB00342188]
- EC50 ([2]; unit not given): 13.11
- CC50 (HEp-2 cells; unit not given): >25.00

Compound: Cc1ccc(-c2nc3ccccc3[nH]2)cc1NC(=O)c1ccc2c(c1)OCO2 [AB00348716]
- EC50 ([2]; unit not given): 17.26
- CC50 (HEp-2 cells; unit not given): >25.00

Compound: CCCOc1ccc(-c2n[nH]c(SCc3ccc(C(=O)OC)o3)n2)cc1 [AB00356597]
- EC50 ([2]; unit not given): 11.59
- CC50 (HEp-2 cells; unit not given): >25.00

Compound: Brc1cc2nc[nH]c2c2ccccc12 [AB00358081]
- EC50 ([2]; unit not given): 12.07
- CC50 (HEp-2 cells; unit not given): >25.00

Compound: COc1ccc2[nH]c(C(C#N)=Cc3cc4c(cc3Cl)OCO4)nc2c1 [AB00364575]
- EC50 ([2]; unit not given): 17.76
- CC50 (HEp-2 cells; unit not given): >25.00

Compound: C=CCN1C(=O)C2(C(C#N)=C(N)Oc3ccccc32)C(C(C)=O)=C1C (stereo not drawn) [AB00364858]
- CC50 at 6 days (in vitro): > 25 µg/mL
- EC50 [1]: 21.2 µg/mL

Compound: O=C(Nc1ccc(OC(F)(F)F)cc1)c1ccc2[nH]cnc2c1 [AB00368222]
- EC50 ([2]; unit not given): 12.26
- CC50 (HEp-2 cells; unit not given): >25.00

Compound: CNC(=S)NNC(=O)COc1ccccc1C [AB00370002]
- CC50 (in vitro): > 25 µg/mL
- EC50 [1]: 22 µg/mL

Compound: Cc1ccc2[nH]c(-c3sc4nc(C)ccc4c3N)nc2c1 [AB00372475]
- EC50 ([2]; unit not given): 21.04
- CC50 (HEp-2 cells; unit not given): >25.00

Compound: O=c1c(F)cn(Cc2ccc([N+](=O)[O-])cc2)c(=O)n1Cc1ccc([N+](=O)[O-])cc1 [AB00373945]
- CC50 (in vitro): > 50 µM
- EC50 [1]: 13.3 µM

Compound: Nc1ccc2c(c1)Cc1ccccc1-2 [AB00374695]
- CC50 (in vitro): > 50 µM
- EC50 [1]: 46.8 µM

Compound: O=S(=O)(O)c1ccc2c(c1)C1=NC/2=N\c2c3cc(S(=O)(=O)O)ccc3c3[n]2[Cu][n]2/c(c4ccc(S(=O)(=O)O)cc4/c2=N/C2=NC(=N\3)/c3cc(S(=O)(=O)O)ccc32)=N\1 [AB00514356]
- CC50 (in vitro): > 50 µM

Compound: CCOC(=O)c1ccc(-n2c(C)cc(C=C(C#N)c3nc4ccccc4[nH]3)c2C)cc1 [AB00709376]
- EC50 ([2]; unit inferred): 10.8 µM
- CC50 (HEp-2 cells; unit inferred): > 50 µM

Compound: CC(N)=C(C#N)C(=O)CN1C(=O)NC(Cc2c[nH]c3ccccc23)C1=O (stereo not drawn) [AB00722846]
- EC50 ([2]; unit inferred): 1.74 µM
- CC50 (HEp-2 cells; unit inferred): > 50 µM

Compound: CC(=O)c1ccc(NC(=O)C(Cc2c[nH]c3ccccc23)NC(=O)c2cccs2)cc1 (stereo not drawn) [AB00776619]
- EC50 ([2]; unit inferred): 27.3 µM
- CC50 (HEp-2 cells; unit inferred): > 50 µM

Compound: CC1CCc2[nH]c3ccc(C(=O)OCC(=O)C(C)(C)C)cc3c2C1 (stereo not drawn) [AB00796257]
- EC50 ([2]; unit inferred): 24.8 µM
- CC50 (HEp-2 cells; unit inferred): > 50 µM

Compound: CC(=O)Nc1ccc(NC(=O)c2ccc3[nH]c4c(c3c2)CC(C)CC4)cc1 (stereo not drawn) [AB00804772]
- EC50 ([2]; unit inferred): 43.4 µM
- CC50 (HEp-2 cells; unit inferred): > 50 µM

Compound: Cc1sc(NC(=O)Cc2ccccc2)c(C(=O)O)c1C [AB00877398]
- EC50 ([2]; unit inferred): 40.1 µM
- CC50 (HEp-2 cells; unit inferred): > 50 µM

Compound: COc1ccccc1/C=N/NC(=N)N[N+](=O)[O-] [SRI-101]
- CC50 (in vitro): > 50 µM
- EC50 [1]: 35.7 µM
